Experimental data taken from ChEMBL document CHEMBL3112480, “γ-Alkylidene-γ-lactones and isobutylpyrrol-2(5H)-ones analogues to rubrolides as inhibitors of biofilm formation by gram-positive and gram-negative bacteria” (Bioorg Med Chem Lett, 2014).
Values after ≈ are worked out from the molar mass of the structure shown.

Experiments:
[1] = system: Staphylococcus epidermidis; experiment: Antibacterial activity against Staphylococcus epidermidis ATCC 35547 assessed as effect on planktonic growth at 5.5 ug/ml after 20 hrs relative to control; assay type: functional
[2] = system: Staphylococcus epidermidis; experiment: Antibacterial activity against Staphylococcus epidermidis ATCC 35547 assessed as effect on planktonic growth at 87.5 ug/ml after 20 hrs relative to control; assay type: functional
Streptococcus mutans [3] = experiment: Antibacterial activity against Streptococcus mutans ATCC 25175 assessed as effect on planktonic growth at 0.34 ug/ml after 20 hrs relative to control; assay type: functional
[4] = system: Staphylococcus epidermidis; experiment: Antibacterial activity against Staphylococcus epidermidis ATCC 35547 assessed as effect on planktonic growth at 21.9 ug/ml after 20 hrs relative to control; assay type: functional
Pseudomonas aeruginosa [5] = experiment: Antibacterial activity against Pseudomonas aeruginosa ATCC 27853 assessed as effect on planktonic growth at 0.34 ug/ml after 20 hrs relative to control; assay type: functional
Pseudomonas aeruginosa [6] = experiment: Antibacterial activity against Pseudomonas aeruginosa ATCC 27853 assessed as effect on planktonic growth at 43.8 ug/ml after 20 hrs relative to control; assay type: functional
Pseudomonas aeruginosa [7] = experiment: Antibacterial activity against Pseudomonas aeruginosa ATCC 27853 assessed as effect on planktonic growth at 2.73 ug/ml after 20 hrs relative to control; assay type: functional
Staphylococcus aureus [8] = experiment: Antibacterial activity against Staphylococcus aureus ATCC 25923 assessed as effect on planktonic growth at 0.68 ug/ml after 20 hrs relative to control; assay type: functional
Streptococcus mutans [9] = experiment: Antibacterial activity against Streptococcus mutans ATCC 25175 assessed as effect on planktonic growth at 0.68 ug/ml after 20 hrs relative to control; assay type: functional
Streptococcus mutans [10] = experiment: Antibacterial activity against Streptococcus mutans ATCC 25175 assessed as effect on planktonic growth at 10.9 ug/ml after 20 hrs relative to control; assay type: functional
[11] = system: Staphylococcus epidermidis; experiment: Antibacterial activity against Staphylococcus epidermidis ATCC 35547 assessed as effect on planktonic growth at 43.8 ug/ml after 20 hrs relative to control; assay type: functional
Staphylococcus aureus [12] = experiment: Antibacterial activity against Staphylococcus aureus ATCC 25923 assessed as inhibition of biofilm formation at 44 ug/ml after 20 hrs by crystal-violet staining method relative to control; assay type: functional; settings: ATCC 25923, 20 h
Streptococcus mutans [13] = experiment: Antibacterial activity against Streptococcus mutans ATCC 25175 assessed as effect on planktonic growth at 1.37 ug/ml after 20 hrs relative to control; assay type: functional
Staphylococcus aureus [14] = experiment: Antibacterial activity against Staphylococcus aureus ATCC 25923 assessed as effect on planktonic growth at 21.9 ug/ml after 20 hrs relative to control; assay type: functional
[15] = system: Staphylococcus epidermidis; experiment: Antibacterial activity against Staphylococcus epidermidis ATCC 35547 assessed as effect on planktonic growth at 10.9 ug/ml after 20 hrs relative to control; assay type: functional
[16] = system: Staphylococcus epidermidis; experiment: Antibacterial activity against Staphylococcus epidermidis ATCC 35547 assessed as effect on planktonic growth at 1.37 ug/ml after 20 hrs relative to control; assay type: functional
Staphylococcus aureus [17] = experiment: Antibacterial activity against Staphylococcus aureus ATCC 25923 assessed as effect on planktonic growth at 1.37 ug/ml after 20 hrs relative to control; assay type: functional
[18] = system: Staphylococcus epidermidis; experiment: Antibacterial activity against Staphylococcus epidermidis ATCC 35547 assessed as effect on planktonic growth at 0.68 ug/ml after 20 hrs relative to control; assay type: functional
Streptococcus mutans [19] = experiment: Antibacterial activity against Streptococcus mutans ATCC 25175 assessed as effect on planktonic growth at 43.8 ug/ml after 20 hrs relative to control; assay type: functional
Staphylococcus aureus [20] = experiment: Antibacterial activity against Staphylococcus aureus ATCC 25923 assessed as effect on planktonic growth at 43.8 ug/ml after 20 hrs relative to control; assay type: functional
Streptococcus mutans [21] = experiment: Antibacterial activity against Streptococcus mutans ATCC 25175 assessed as effect on planktonic growth at 2.73 ug/ml after 20 hrs relative to control; assay type: functional
Staphylococcus aureus [22] = experiment: Antibacterial activity against Staphylococcus aureus ATCC 25923 assessed as effect on planktonic growth at 0.17 ug/ml after 20 hrs relative to control; assay type: functional
Streptococcus mutans [23] = experiment: Antibacterial activity against Streptococcus mutans ATCC 25175 assessed as effect on planktonic growth at 87.5 ug/ml after 20 hrs relative to control; assay type: functional
Streptococcus mutans [24] = experiment: Antibacterial activity against Streptococcus mutans ATCC 25175 assessed as effect on planktonic growth at 21.9 ug/ml after 20 hrs relative to control; assay type: functional
Pseudomonas aeruginosa [25] = experiment: Antibacterial activity against Pseudomonas aeruginosa ATCC 27853 assessed as effect on planktonic growth at 0.68 ug/ml after 20 hrs relative to control; assay type: functional
[26] = system: Staphylococcus epidermidis; experiment: Antibacterial activity against Staphylococcus epidermidis ATCC 35547 assessed as effect on planktonic growth at 0.17 ug/ml after 20 hrs relative to control; assay type: functional
Streptococcus mutans [27] = experiment: Antibacterial activity against Streptococcus mutans ATCC 25175 assessed as effect on planktonic growth at 0.17 ug/ml after 20 hrs relative to control; assay type: functional
Staphylococcus aureus [28] = experiment: Antibacterial activity against Staphylococcus aureus ATCC 25923 assessed as effect on planktonic growth at 0.34 ug/ml after 20 hrs relative to control; assay type: functional
Pseudomonas aeruginosa [29] = experiment: Antibacterial activity against Pseudomonas aeruginosa ATCC 27853 assessed as effect on planktonic growth at 5.5 ug/ml after 20 hrs relative to control; assay type: functional
Pseudomonas aeruginosa [30] = experiment: Antibacterial activity against Pseudomonas aeruginosa ATCC 27853 assessed as effect on planktonic growth at 87.5 ug/ml after 20 hrs relative to control; assay type: functional
Staphylococcus aureus [31] = experiment: Antibacterial activity against Staphylococcus aureus ATCC 25923 assessed as effect on planktonic growth at 10.9 ug/ml after 20 hrs relative to control; assay type: functional
Pseudomonas aeruginosa [32] = experiment: Antibacterial activity against Pseudomonas aeruginosa ATCC 27853 assessed as effect on planktonic growth at 10.9 ug/ml after 20 hrs relative to control; assay type: functional
Pseudomonas aeruginosa [33] = experiment: Antibacterial activity against Pseudomonas aeruginosa ATCC 27853 assessed as effect on planktonic growth at 0.17 ug/ml after 20 hrs relative to control; assay type: functional
Pseudomonas aeruginosa [34] = experiment: Antibacterial activity against Pseudomonas aeruginosa ATCC 27853 assessed as inhibition of biofilm formation after 20 hrs by crystal-violet staining method; assay type: functional, organism-based; settings: for IC50: ATCC 27853, 20 h
[35] = system: Staphylococcus epidermidis; experiment: Antibacterial activity against Staphylococcus epidermidis ATCC 35547 assessed as effect on planktonic growth at 0.34 ug/ml after 20 hrs relative to control; assay type: functional
Streptococcus mutans [36] = experiment: Antibacterial activity against Streptococcus mutans ATCC 25175 assessed as effect on planktonic growth at 5.5 ug/ml after 20 hrs relative to control; assay type: functional
Staphylococcus aureus [37] = experiment: Antibacterial activity against Staphylococcus aureus ATCC 25923 assessed as effect on planktonic growth at 5.5 ug/ml after 20 hrs relative to control; assay type: functional
Staphylococcus aureus [38] = experiment: Antibacterial activity against Staphylococcus aureus ATCC 25923 assessed as effect on planktonic growth at 2.73 ug/ml after 20 hrs relative to control; assay type: functional
Pseudomonas aeruginosa [39] = experiment: Antibacterial activity against Pseudomonas aeruginosa ATCC 27853 assessed as effect on planktonic growth at 21.9 ug/ml after 20 hrs relative to control; assay type: functional
[40] = system: Staphylococcus epidermidis; experiment: Antibacterial activity against Staphylococcus epidermidis ATCC 35547 assessed as inhibition of biofilm formation after 20 hrs by crystal-violet staining method; assay type: functional, organism-based
Pseudomonas aeruginosa [41] = experiment: Antibacterial activity against Pseudomonas aeruginosa ATCC 27853 assessed as effect on planktonic growth at 1.37 ug/ml after 20 hrs relative to control; assay type: functional
Staphylococcus aureus [42] = experiment: Antibacterial activity against Staphylococcus aureus ATCC 25923 assessed as effect on planktonic growth at 87.5 ug/ml after 20 hrs relative to control; assay type: functional
[43] = system: Staphylococcus epidermidis; experiment: Antibacterial activity against Staphylococcus epidermidis ATCC 35547 assessed as effect on planktonic growth at 2.73 ug/ml after 20 hrs relative to control; assay type: functional
[44] = system: Staphylococcus epidermidis; experiment: Induction of biofilm formation in Staphylococcus epidermidis ATCC 35547 at 87.5 ug/ml after 20 hrs by crystal-violet staining method relative to control; assay type: organism-based

With `COc1ccc(C)cc1C1=C(Br)C(=O)N(CC(C)C)/C1=C/c1ccccc1Cl` the Activity [1] was -1%, the Activity [2] was 23.5% and the Activity (Streptococcus mutans [3]) was 18.1%. The Activity [4] was 5.9%, the Activity (Pseudomonas aeruginosa [5]) was 0.6% and the Activity (Pseudomonas aeruginosa [6]) was -7.7%. For the same molecule, the Activity (Pseudomonas aeruginosa [7]) was -18.8%, the Activity (Staphylococcus aureus [8]) was -3.6% and the Activity (Streptococcus mutans [9]) was 9%. The Activity (Streptococcus mutans [10]) was 18.6%, the Activity [11] was 26.9% and the inhibition at 44 µg/mL (Staphylococcus aureus [12]) was 34%. For the same molecule, the Activity (Streptococcus mutans [13]) was 20.6%, the Activity (Staphylococcus aureus [14]) was -13.2% and the Activity [15] was 6%. The Activity [16] was -2.3%, the Activity (Staphylococcus aureus [17]) was -4.6% and the Activity [18] was -6.1%. For the same molecule, the Activity (Streptococcus mutans [19]) was 20.1%, the Activity (Staphylococcus aureus [20]) was 4.6% and the Activity (Streptococcus mutans [21]) was 24.3%. It also gave an Activity (Staphylococcus aureus [22]) of -6.6%, an Activity (Streptococcus mutans [23]) of 20.1% and an Activity (Streptococcus mutans [24]) of 13.8%. It also gave an Activity (Pseudomonas aeruginosa [25]) of -2.7%, an Activity [26] of -2.9% and an Activity (Streptococcus mutans [27]) of 11.9%. The Activity (Staphylococcus aureus [28]) was -6.6%, the Activity (Pseudomonas aeruginosa [29]) was -17.8% and the Activity (Pseudomonas aeruginosa [30]) was -4.3%. For the same molecule, the Activity (Staphylococcus aureus [31]) was -11.2%, the Activity (Pseudomonas aeruginosa [32]) was -15% and the Activity (Pseudomonas aeruginosa [33]) was 1.2%. For the same molecule, the inhibition (Pseudomonas aeruginosa [34]) was “Dose-dependent effect”, the IC50 (Pseudomonas aeruginosa [34]) was 1.4 µg/mL (≈ 3.04 µM) and the Activity [35] was 3.6%. For the same molecule, the Activity (Streptococcus mutans [36]) was 25.4%, the Activity (Staphylococcus aureus [37]) was -9.4% and the Activity (Staphylococcus aureus [38]) was -10.4%. The Activity (Pseudomonas aeruginosa [39]) was -13.2%, the inhibition [40] was “Dose-dependent effect” and the IC50 ([40]; ATCC 35547, 20 h) was greater than 87.5 µg/mL. The Activity (Pseudomonas aeruginosa [41]) was -10%, the Activity (Staphylococcus aureus [42]) was 20.1% and the Activity [43] was 0.4%.
`COc1ccccc1C1=C(Br)C(=O)N(CC(C)C)C1(O)Cc1ccc(C(F)(F)F)cc1` (centres undefined) showed an Activity [1] of 10.7%, an Activity [2] of 0.5% and an Activity (Streptococcus mutans [3]) of 6.2%. For the same molecule, the Activity [4] was 13.8%, the Activity (Pseudomonas aeruginosa [5]) was 3.7% and the Activity (Pseudomonas aeruginosa [6]) was -7.8%. It also gave an Activity (Pseudomonas aeruginosa [7]) of -18.4%, an Activity (Staphylococcus aureus [8]) of -5.6% and an Activity (Streptococcus mutans [9]) of 10.9%. It also gave an Activity (Streptococcus mutans [10]) of -23.9%, an Activity [11] of 16.3% and an Activity (Streptococcus mutans [13]) of 12.4%. The Activity (Staphylococcus aureus [14]) was -17%, the Activity [15] was 16.4% and the Activity [16] was 0.1%. For the same molecule, the Activity (Staphylococcus aureus [17]) was 2.5%, the Activity [18] was 1.4% and the Activity (Streptococcus mutans [19]) was -29.9%. It also gave an Activity (Staphylococcus aureus [20]) of -17%, an Activity (Streptococcus mutans [21]) of 1.7% and an Activity (Staphylococcus aureus [22]) of -4.8%. The Activity (Streptococcus mutans [23]) was -36.3%, the Activity (Streptococcus mutans [24]) was -26.9% and the Activity (Pseudomonas aeruginosa [25]) was -6.5%. The Activity [26] was 6.3%, the Activity (Streptococcus mutans [27]) was 0.7% and the Activity (Staphylococcus aureus [28]) was -2.8%. It also gave an Activity (Pseudomonas aeruginosa [29]) of -17.2%, an Activity (Pseudomonas aeruginosa [30]) of -10.8% and an Activity (Staphylococcus aureus [31]) of -5.8%. For the same molecule, the Activity (Pseudomonas aeruginosa [32]) was -16.2%, the Activity (Pseudomonas aeruginosa [33]) was 4.7% and the Activity [44] was 143.6%. For the same molecule, the inhibition (Pseudomonas aeruginosa [34]) was “Dose-dependent effect”, the IC50 (Pseudomonas aeruginosa [34]) was greater than 87.5 µg/mL and the Activity [35] was 1.9%. For the same molecule, the Activity (Streptococcus mutans [36]) was -18.7%, the Activity (Staphylococcus aureus [37]) was -4.1% and the Activity (Staphylococcus aureus [38]) was 0.5%. For the same molecule, the Activity (Pseudomonas aeruginosa [39]) was -12.2%, the inhibition [40] was “Dose-dependent effect” and the Activity (Pseudomonas aeruginosa [41]) was -19.3%. The Activity (Staphylococcus aureus [42]) was -15.4% and the Activity [43] was 3.5%.
